Experimental data taken from the Kinase Knowledgebase extract (Sharma et al. 2016).

Experiments:
[1] = biological target: EGFR (human) (UniProt P00533); conditions: a431
[2] = biological target: EGFR (human), P00533 [Antiproliferation of H195 Cells Having Overexpressed EGFR T790 Mutant Kinase]
[3] = biological target: EGFR (human) (UniProt P00533)
[4] = biological target: EGFR (human), P00533 [Assessment of EGFR T790 Mutant Kinase Activity]
EGFR (human), P00533 [Assessment of EGFR T790 Mutant Kinase Activity], sequence (P00533 whole entry, looked up, change not shown): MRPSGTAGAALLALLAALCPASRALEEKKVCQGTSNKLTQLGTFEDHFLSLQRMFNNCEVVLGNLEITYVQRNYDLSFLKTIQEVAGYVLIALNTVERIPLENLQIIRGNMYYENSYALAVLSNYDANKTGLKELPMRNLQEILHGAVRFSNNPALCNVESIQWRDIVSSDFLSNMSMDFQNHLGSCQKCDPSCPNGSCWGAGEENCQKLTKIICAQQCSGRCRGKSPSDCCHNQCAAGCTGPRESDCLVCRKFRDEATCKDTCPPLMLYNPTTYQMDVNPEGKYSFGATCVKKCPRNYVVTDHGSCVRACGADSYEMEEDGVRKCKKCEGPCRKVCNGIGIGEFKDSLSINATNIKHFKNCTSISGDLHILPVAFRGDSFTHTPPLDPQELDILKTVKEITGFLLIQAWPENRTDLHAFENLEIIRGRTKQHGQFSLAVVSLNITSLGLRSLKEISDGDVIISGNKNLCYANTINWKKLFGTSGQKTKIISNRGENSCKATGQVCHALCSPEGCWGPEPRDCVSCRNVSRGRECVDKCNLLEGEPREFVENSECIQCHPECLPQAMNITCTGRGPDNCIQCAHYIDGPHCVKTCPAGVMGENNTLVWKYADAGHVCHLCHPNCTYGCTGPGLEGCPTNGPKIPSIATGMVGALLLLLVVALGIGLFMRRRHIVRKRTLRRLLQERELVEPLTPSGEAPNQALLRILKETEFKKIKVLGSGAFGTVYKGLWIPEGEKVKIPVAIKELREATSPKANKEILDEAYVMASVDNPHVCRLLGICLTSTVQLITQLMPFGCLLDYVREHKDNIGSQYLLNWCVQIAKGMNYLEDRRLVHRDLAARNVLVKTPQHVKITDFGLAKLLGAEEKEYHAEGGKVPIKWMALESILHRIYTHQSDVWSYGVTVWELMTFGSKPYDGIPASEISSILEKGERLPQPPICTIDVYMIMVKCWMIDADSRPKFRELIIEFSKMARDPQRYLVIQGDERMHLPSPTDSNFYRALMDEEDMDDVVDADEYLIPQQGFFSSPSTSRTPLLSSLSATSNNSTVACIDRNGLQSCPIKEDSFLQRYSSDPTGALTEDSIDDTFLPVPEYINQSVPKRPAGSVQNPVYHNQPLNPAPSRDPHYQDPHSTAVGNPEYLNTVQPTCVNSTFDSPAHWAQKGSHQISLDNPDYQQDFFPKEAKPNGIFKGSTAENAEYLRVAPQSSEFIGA

EGFR (human), P00533 [Antiproliferation of H195 Cells Having Overexpressed EGFR T790 Mutant Kinase], sequence (P00533 whole entry, looked up, change not shown): as above
EGFR (human), sequence (P00533 whole entry, looked up): as the sequence (P00533 whole entry, looked up, change not shown) above

IC50 [1] [nM]	SMILES	IC50 [2] [nM]	IC50 [3] [nM]	IC50 [4] [nM]
3.1	C=C(NC(C)=O)C(=O)N1CC(Oc2cc3c(Nc4ccc(F)c(Cl)c4F)ncnc3cc2OC)C1	50	–	–
0.8	C=CC(=O)N1CC[C@@H](Oc2cc3c(Nc4ccc(Cl)c(Cl)c4F)ncnc3cc2OC)C[C@@H]1C(N)=O	1.1	–	–
39	COc1cc2ncnc(Nc3cccc(Cl)c3F)c2cc1OC1CCN(C(=O)CO)CC1	–	204	–
4	C=CC(=O)N1CCC(Oc2cc3c(Nc4ccc(F)c(Cl)c4F)ncnc3cc2OCCOC)CC1	47	–	–
–	C=CC(=O)N1CCC(Oc2cc3c(Nc4ccc(F)c(Cl)c4F)ncnc3cc2OC)CC1	–	–	24
165	COc1cc2ncnc(Nc3ccc(Cl)c(Cl)c3F)c2cc1OC1CCN(C(=O)/C=C/CN(C)C)CC1	–	–	–
18	COc1cc2ncnc(Nc3ccc(F)c(Cl)c3F)c2cc1OCCNC(=O)/C=C/CN(C)C	–	–	–
10	C=CC(=O)N1CCC(Oc2cc3c(Nc4ccc(OCc5cccc(F)c5)c(Cl)c4)ncnc3cc2OC)CC1	–	–	–
9	COc1cc2ncnc(Nc3cccc(Cl)c3F)c2cc1OC1CN(C(=O)/C=C/CN(C)C)C1	–	–	–
11	C=CC(=O)N1CCC(Oc2cc3c(Nc4cccc(C(F)(F)F)c4F)ncnc3cc2OC)CC1	–	–	–
8	COC(=O)/C=C\C(=O)N1CCC(Oc2cc3c(Nc4ccc(Cl)c(Cl)c4F)ncnc3cc2OC)CC1	–	–	–
61	C=CC(=O)N1CCC(Oc2cc3c(NCc4cccc(Cl)c4)ncnc3cc2OC)CC1	–	–	–
2.4	COc1cc2ncnc(Nc3ccc(F)c(Cl)c3F)c2cc1OC1CN(C(=O)/C=C\Cl)C1	19	–	–
883	C=CC(=O)N1CC(Oc2cc3c(Nc4ccc(F)c(Cl)c4F)ncnc3cc2OCCOC)C1	–	–	–
26	C=CC(=O)N1CCC(Oc2cc3c(Nc4cccc(CCl)c4)ncnc3cc2OC)CC1	–	–	–
105	C=CC(=O)N1CCC(Oc2cc3c(Nc4ccc(Cl)c(O)c4)ncnc3cc2OC)CC1	–	–	–
48	CNC(=O)/C=C/C(=O)N1CCC(Oc2cc3c(Nc4ccc(F)c(Cl)c4F)ncnc3cc2OC)CC1	–	–	–
37	CC#CC(=O)N1CC[C@H](Oc2cc3c(Nc4ccc(F)c(Cl)c4F)ncnc3cc2OC)C1	–	–	–

IC50 [1] [nM]	SMILES	IC50 [2] [nM]	IC50 [3] [nM]	IC50 [4] [nM]
29	C=CC(=O)N1CCC(Oc2cc3c(Nc4ccc5c(c4)CCC5)ncnc3cc2OC)CC1	–	–	–
300	C=CC(=O)N1CCC(Oc2cc3c(Nc4cccc(S)c4)ncnc3cc2OC)CC1	–	–	–
93	C=CC(=O)N1CCC(Oc2cc3c(Nc4ccc(Cl)c(C)c4)ncnc3cc2OC)CC1	–	–	–
8	COc1cc2ncnc(Nc3ccc(F)c(Cl)c3F)c2cc1O[C@H]1CCN(C(=O)/C=C/CN2CCCC2)C1	–	–	–
44	C=C(CO)C(=O)N1CCC(Oc2cc3c(Nc4ccc(Cl)c(Cl)c4F)ncnc3cc2OC)CC1	–	–	–
514	C=CC(=O)N1CCC(Oc2cc3c(N[C@H](C)c4ccccc4)ncnc3cc2OC)CC1	–	–	–
19	C=CC(=O)N1CC[C@H](Oc2cc3c(Nc4ccc5c(cnn5Cc5cccc(F)c5)c4)ncnc3cc2OC)C1	–	–	–
41	COc1cc2ncnc(Nc3ccc(F)c(Cl)c3F)c2cc1OC1CCN(C(=O)/C=C\C(=O)O)CC1	–	–	–
28	CCN(CC)C/C=C/C(=O)N1CC[C@H](Oc2cc3c(Nc4ccc(F)c(Cl)c4F)ncnc3cc2OC)C1	–	–	–
85	COc1cc2ncnc(Nc3ccc(F)c(Cl)c3F)c2cc1O[C@H]1CCN(C(=O)/C=C/CN2CCOCC2)C1	–	–	–
3	C=CC(=O)N1CCC(Oc2cc3c(Nc4cccc(Cl)c4OC)ncnc3cc2OC)CC1	–	–	–
176	C=CC(=O)N1CCC(Oc2cc3c(Nc4ccc(O)cc4Cl)ncnc3cc2OC)CC1	–	–	–
9	COC(=O)/C=C\C(=O)N1CCC(Oc2cc3c(Nc4ccc(F)c(Cl)c4F)ncnc3cc2OC)CC1	–	–	–
44	COc1cc2ncnc(Nc3ccc(F)c(Cl)c3F)c2cc1OC1CN(C(=O)/C=C/Cl)C1	–	–	–
109	C=CC(=O)N1CCC(Oc2cc3c(Nc4ccc(O)c(Cl)c4)ncnc3cc2OC)CC1	–	–	–
43	C=CC(=O)N1CCC(Oc2cc3c(Nc4ccc(F)c(F)c4F)ncnc3cc2OC)CC1	–	–	–
17	C=CC(=O)N1CCC(Oc2cc3c(Nc4ccc(F)c(Cl)c4)ncnc3cc2OC)CC1	16	–	–
381	C=CC(=O)N1CC(Oc2cc3c(Nc4ccc(F)c(Cl)c4F)ncnc3cc2O)C1	–	–	–

SMILES	IC50 [1] [nM]	IC50 [2] [nM]	IC50 [3] [nM]	IC50 [4] [nM]
C=CC(=O)N1CC(Oc2cc3c(Nc4cccc(Cl)c4F)ncnc3cc2OC)C1	1.6	9	–	–
C=CC(=O)N1CC[C@H](Oc2cc3c(Nc4ccc(Br)c(Cl)c4F)ncnc3cc2OC)C1	5	55	–	–
C=CC(=O)N1CCC(Oc2cc3c(Nc4cccc(Cl)c4F)ncnc3cc2OC)CC1	2	22	–	–
C=CC(=O)N1CC(Oc2cc3c(Nc4cccc(Cl)c4)ncnc3cc2OC)C1	1.6	17.7	–	–
C=CC(=O)N1CC[C@H](Oc2cc3c(Nc4ccc(F)c(Cl)c4F)ncnc3cc2OC)C[C@H]1C(=O)NCCO	5.4	39	–	–
C=CC(=O)N1CC(Oc2cc3c(N[C@H](C)c4ccccc4)ncnc3cc2OC)C1	7	156	–	–
C=CC(=O)N1CCC(Oc2cc3c(Nc4cccc(Br)c4)ncnc3cc2OC)CC1	1	96	–	–
C=CC(=O)N1CCC(Oc2cc3c(Nc4cccc(C=C)c4)ncnc3cc2OC)CC1	1.9	27	–	–
C=C(CN(C)C)C(=O)N1CC(Oc2cc3c(Nc4ccc(F)c(Cl)c4F)ncnc3cc2OC)C1	41	11	–	–
C=CC(=O)N1CC(Oc2cc3c(Nc4ccc(F)c(Cl)c4F)ncnc3cc2OC)C1	0.3	1.5	–	–
C=CC(=O)N1CC[C@@H](Oc2cc3c(Nc4ccc(F)c(Cl)c4F)ncnc3cc2OC)C[C@@H]1C(N)=O	0.8	5.2	–	–
C=C(CN1CCOCC1)C(=O)N1CC(Oc2cc3c(Nc4ccc(F)c(Cl)c4F)ncnc3cc2OC)C1	1.5	8	–	–
C=CC(=O)N1CC[C@H](Oc2cc3c(Nc4ccc(F)c(Cl)c4F)ncnc3cc2OC)C[C@H]1C(=O)NCCSC	2.4	5	–	–
C=CC(=O)N1CCC(Oc2cc3c(Nc4cccc(C)c4)ncnc3cc2OC)CC1	1	236	–	–
C=CC(=O)N1CC[C@H](Oc2ccc3ncnc(Nc4ccc(F)c(Cl)c4F)c3c2)C1	5	413	–	–
C=CC(=O)N1CCC(Oc2cc3c(Nc4ccc(Br)c(C)c4)ncnc3cc2OC)CC1	6	48	–	–
C=CC(=O)N1CC[C@H](Oc2cc3c(Nc4ccc(F)c(Cl)c4F)ncnc3cc2OC)C[C@H]1C(=O)NC	2.2	–	–	–
C=CC(=O)N1CC[C@@H](Oc2cc3c(Nc4ccc(F)c(Cl)c4F)ncnc3cc2OC)C1	222	–	–	–
C=CC(=O)N1CC[C@@H](Oc2cc3c(Nc4ccc(F)c(Cl)c4F)ncnc3cc2OC)C[C@@H]1C(=O)OC	0.7	5.4	–	–
C=CC(=O)N1CC[C@H](Oc2cc3c(N[C@H](C)c4ccccc4)ncnc3cc2OC)C1	8	167	–	–
C=CC(=O)N1CC[C@H](Oc2cc3c(Nc4ccc(F)c(Cl)c4F)ncnc3cc2OC)C1	4	80	3	–
C=CC(=O)N1CC[C@H](Oc2cc3c(Nc4ccc(F)c(Cl)c4F)ncnc3cc2OC)C[C@H]1C(N)=O	3	5.2	–	–
C=CC(=O)N1CC[C@H](Oc2cc3c(Nc4ccc(F)c(Cl)c4F)ncnc3cc2OC)C[C@H]1C(=O)NCCN(C)C	5.7	30	–	–
C=CC(=O)N1CC[C@H](Oc2cc3c(Nc4ccc(F)c(Cl)c4F)ncnc3cc2OC)C[C@H]1C(=O)NCCS(C)(=O)=O	2.2	50.4	–	–
C=CC(=O)N1CC[C@@H](Oc2cc3c(Nc4ccc(F)c(Cl)c4F)ncnc3cc2OC)C[C@@H]1C(=O)NC	2.9	2.6	–	–
C=CC(=O)N1CC[C@H](Oc2cc3c(Nc4ccc(F)c(Cl)c4F)ncnc3cc2OC)C[C@H]1C(=O)NCCOC	3.4	11	–	–
C=CC(=O)N1CC[C@H](Oc2cc3c(Nc4ccc(OCc5ccccn5)c(Cl)c4)ncnc3cc2OC)C1	14	–	–	–
